Data published in US6136801A, “Therapeutic agent with quantitative consumption marker” (U. D. Testing, Inc., priority 1998, dated 2000).

How the values were obtained:
[1] = Renal excretion rates as a function of urine volume production rate; format: in vivo, human
Protocol: This constancy has now been experimentally verified by examining the renal excretion rates of methadone, benzodiazepines, other drugs and creatinine and other endogenous metabolites as a function of urine volume production rate. For example, sequential, complete and timed (1-8 hours holding periods) aliquots of urine for 12 compliant control subjects were collected over 24 to 72 hour periods. For each urine aliquot, urine volume production rate (ml/min), specific gravity and creatinine concentration (mg/dl) (as the tested substance) were determined.

[2] = Normalized urine compliance marker (diazepam) concentration in patients, FPIA, normalized to urine SG 1.030 and 154 lbs body weight; conditions: diazepam 2 mg p.o. q12h

| SMILES | renal excretion rates during a typical day [1] | MEAN NU FOR […] ([2]; Experiment #1, patient P-1, methadone 30 mg p.o. q12h) | MEAN NU FOR […] ([2]; Experiment #1, patient P-3, methadone 30 mg p.o. q12h) |
| --- | --- | --- | --- |
| CCC(=O)C(CC(C)N(C)C)(c1ccccc1)c1ccccc1 (stereo not drawn) [methadone] | relatively constant | – | – |
| CN1C(=O)CN=C(c2ccccc2)c2cc(Cl)ccc21 [diazepam] | – | 500 (SD 90, CV 18%) | 499 (SD 73, CV 15%) |
